Source: ChEMBL document CHEMBL4715915, “Identification of madangamine A as a novel lysosomotropic agent to inhibit autophagy” (2021)
Active and inactive are the calls of the source. The calls are words filed in the database; no cut-off is given here.

How the values were obtained:
[1] = system: HeLa; test: Inhibition of autophagy in human HeLa cells assessed as increase in P62 protein level at 10 nM after 24 hrs by Western blot analysis; assay type: functional, cell-based
[2] = system: HeLa; test: Induction of autophagosome formation in human HeLa cells assessed as increase in LC3 puncta at 10 nM after 24 hrs by Alexa Fluor 488 staining based fluorescence microscopic analysis; assay type: functional, cell-based
[3] = system: HeLa; test: Inhibition of autophagy in human HeLa cells assessed as increase in lysosomal pH at 10 nM after 24 hrs by LysoTracker Red DND-99 staining based fluorescence microscopic method; assay type: functional, cell-based
[4] = system: HeLa; test: Induction of autophagy in human HeLa cells assessed as decrease in P62 protein level at 1 uM after 24 hrs by Western blot analysis; assay type: functional, cell-based
[5] = system: HeLa; test: Antiproliferative activity against human HeLa cells assessed as cell viability at 1 uM after 24 hrs by MTT assay relative to control; assay type: functional; conditions: read-out: Activity
[6] = system: HeLa; test: Modulation of autophagy in human HeLa cells assessed as increase in LC3-2 protein level at 1 to 20 uM after 24 hrs by Western blot analysis; assay type: functional, cell-based; conditions: dose 1-20 µM
[7] = system: HeLa; test: Inhibition of autophagy in human HeLa cells assessed as increase in P62 protein level at 1 to 20 uM after 24 hrs by Western blot analysis; assay type: functional, cell-based; conditions: dose 1-20 µM
[8] = system: HeLa; test: Antiproliferative activity against human HeLa cells assessed as cell viability at 20 uM after 24 hrs by MTT assay relative to control; assay type: functional; conditions: read-out: Activity
[9] = system: HeLa; test: Antiproliferative activity against human HeLa cells assessed as cell viability at 10 uM after 24 hrs by MTT assay relative to control; assay type: functional; conditions: read-out: Activity
[10] = system: HeLa; test: Induction of autophagosome formation in human HeLa cells assessed as increase in LC3 puncta at 10 uM after 24 hrs by Alexa Fluor 488 staining based fluorescence microscopic analysis; assay type: functional, cell-based
[11] = system: HeLa; test: Induction of autophagosome formation in human HeLa cells assessed as increase in LC3 puncta at 10 uM after 24 hrs in presence of Baf A1 by Alexa Fluor 488 staining based fluorescence microscopic analysis; assay type: functional, cell-based
[12] = system: HeLa; test: Induction of autophagosome formation in human HeLa cells assessed as increase in LC3 puncta at 10 uM after 6 hrs in presence of rapamycin by Alexa Fluor 488 staining based fluorescence microscopic analysis; assay type: functional, cell-based
[13] = system: HT-1080; test: Induction of autophagosome formation in HT-1080 cells assessed as increase in LC3 puncta at 10 uM after 24 hrs by Alexa Fluor 488 staining based fluorescence microscopic analysis; assay type: functional, cell-based; conditions: Homo sapiens
[14] = system: SK-MEL-28; test: Induction of autophagosome formation in SK-MEL-28 cells assessed as increase in LC3 puncta at 10 uM after 24 hrs by Alexa Fluor 488 staining based fluorescence microscopic analysis; assay type: functional, cell-based; conditions: Homo sapiens
[15] = system: HeLa; test: Modulation of autophagy in human HeLa cells assessed as increase in LC3-2 protein level at 10 uM after 24 hrs in presence of Baf A1 by Western blot analysis; assay type: functional, cell-based
[16] = system: HeLa; test: Modulation of autophagy in human HeLa cells assessed as increase in LC3-2 protein level at 10 uM after 24 hrs in presence of chloroquine by Western blot analysis; assay type: functional, cell-based
[17] = system: HeLa; test: Inhibition of autophagy in human HeLa cells assessed as increase in P62 protein level at 10 uM after 24 hrs in presence of Baf A1 by Western blot analysis; assay type: functional, cell-based
[18] = system: HeLa; test: Inhibition of autophagy in human HeLa cells assessed as increase in P62 protein level at 10 uM after 24 hrs in presence of chloroquine by Western blot analysis; assay type: functional, cell-based
[19] = system: HeLa; test: Inhibition of autophagy in human HeLa cells assessed as increase in lysosomal pH at 10 uM after 24 hrs by LysoTracker Red DND-99 staining based fluorescence microscopic method; assay type: functional, cell-based
[20] = system: HeLa; test: Inhibition of autophagy in human HeLa cells assessed as decrease in cathepsin B at 10 nM after 24 hrs by immunoblot analysis; assay type: functional, cell-based

CO/C1=C\C(C)=C\[C@@H](C)[C@@H](O)[C@@H](C)C/C(C)=C/C=C/[C@H](OC)[C@@H]([C@@H](C)[C@@H](O)[C@H](C)[C@@]2(O)C[C@@H](O)[C@H](C)[C@@H](C(C)C)O2)OC1=O
inhibition [1]: Active | Activity [2]: Active | inhibition [3]: inactive

CO[C@H]1C[C@@H]2CC[C@@H](C)[C@@](O)(O2)C(=O)C(=O)N2CCCC[C@H]2C(=O)O[C@H]([C@H](C)C[C@@H]2CC[C@@H](O)[C@H](OC)C2)CC(=O)[C@H](C)/C=C(\C)[C@@H](O)[C@@H](OC)C(=O)[C@H](C)C[C@H](C)/C=C/C=C/C=C/1C
Activity [4]: Active

C1=C\C/C=C\CC[C@@]23CN(CC/C=C\C/1)C[C@H]1C/C4=C/C/C=C\CCCCN(C2)[C@@H]4C[C@H]13
viability at 1 µM [5]: 95.2% | Activity [6]: Active | inhibition [7]: Active | viability at 20 µM [8]: 1.4% | viability at 10 µM [9]: 2.9% | Activity [10]: Active | Activity [11]: Active | Activity [12]: inactive | Activity [13]: Active | Activity [14]: Active | inhibition [15]: Active | inhibition [16]: Active | inhibition [17]: Active | inhibition [18]: Active | inhibition [19]: Active | inhibition [20]: Active

CCN(CC)CCCC(C)Nc1ccnc2cc(Cl)ccc12 (stereo unspecified)
inhibition [19]: Active
